The text below walks through data of US11439631B2, “Use of a glutarimide derivative to treat diseases related to the aberrant activity of cytokines” (“CHEMIMMUNE THERAPEUTICS” LIMITED LIABILITY COMPANY, priority 2017, dated 2022).

In test [1] the test system is macrophage chemotaxis (thioglycolate peritonitis). The test is described as follows: Macrophage chemotaxis to the site of inflammation (thioglycolate peritonitis) in mice. The test is classed as in vivo, male Balb/c mice. Here is the method: The induction of macrophage chemotaxis to the site of inflammation (thioglycolate peritonitis) in mice were performed according to the standard procedure [J Leukoc Biol. 2009. V. 86.(2). P. 361-370]. Male Balb/c mice were intraperitoneally administered with 2 ml of 3% thioglycolic medium stored for 1 month. The preparation of thioglycolic medium was carried out as follows: 15 g of dry thioglycolic medium was stirred in 500 ml of distilled water, was boiled at 100° C. for 2 minutes, was filtered through a paper filter, was poured out by 50 ml in sterile tubes and was sterilized by autoclaving at 121° C. for 15 minutes. […]
After 72 hours, the animals were euthanized in a CO2-chamber and the peritoneum area was wetted with 70% alcohol, the skin on the abdominal cavity was carefully cut off, and 5 ml of a cold phosphate-saline buffer containing 0.1% of ethylenediamine tetraacetic acid was injected intraperitoneally with a syringe. After gentle massage of the abdominal cavity, the exudate was collected by a syringe into tubes, and the volume of the collected exudate was determined.
Smears were prepared from the cell pellet, which smears were further fixed in methanol (5 minutes) and stained by Romanowsky-Giemsa (40 min at 20-22° C.). On the smears, under the microscope Olympus bx51 (at magnification 100) the quantity of monocytes/macrophages was counted by the routine method. […]

For test [2], the system named is thermal pain irritation (hot plate). The test is described as follows: Thermal pain irritation model hot plate. The conditions noted are these: intragastric administration. The test is classed as in vivo, Balb/c mice. Here is the method: The model of thermal pain irritation “hot plate” was carried out according to the standard procedure [Valdman A. V., Ignatov Y. D. Central mechanisms of pain. L.: Nauka, 1976]. The test compound was administered to Balb/c mice intragastrically, once. After 1, 4, 6, 12, 24 hours after the administration of the preparation, the “hot plate” test was carried out. To conduct the “hot plate” test, the mice were placed on the hot plate, the temperature (+55±1° C.) of which is constant. The time of first manifestations of the pain response in mice (paw licking, jumping) was registered and the mean latent time of the threshold of pain sensitivity (TPS, sec) in each group was calculated.

In test [3] the test system is neutrophil and macrophage chemotaxis (carrageenan pouch). Briefly: Macrophage and neutrophil chemotaxis model to the site of inflammation (carrageenan pouch) in mice. The test is classed as in vivo, female Balb/c mice. Here is the method: The induction of macrophages and neutrophils chemotaxis to the site of inflammation (carrageenan pouch) in mice was tested according to the standard procedure [Curr Protoc Pharmacol. 2012. V. 5. P. 5-6]. […] After 3 days to maintain the integrity of the air pouch without increasing the wound, 2.5 ml of air was introduced at the same site. On day 6 under CO2 anesthesia to induce inflammation, 1 ml of 1% carrageenan solution prepared in physiological saline was administered directly into the pouch. The test compound was administered intragastrically 1 hour before the administration of carrageenan and then every 10-12 hours in the volume of 0.1 ml. The last administration is 12 hours before the slaughter. Euthanasia by the inhalation of CO2 was performed 48 hours after the carrageenan injection. Immediately after the euthanasia, 1 ml of physiological saline containing 5.4 mM of EDTA of room temperature was introduced into the pouch with a sterile syringe. After gentle massage of the region of the air pouch, a sagittal incision was made across the pouch and exudate was collected by a dispenser. After the centrifugation of the exudate from the cell pellet, smears were prepared, which were then fixed in methanol and were stained by Romanowsky-Giemsa. A quantity of macrophages and neutrophils was then determined on the smears under a microscope. The cell calculation was made up to 100 pcs.

The subject of test [4] is non-infectious pneumonia induced by poly I:C. The test is described as follows: Non-infectious pneumonia induced by intranasal administration of poly I:C to mice (BAL neutrophils, lung histology). Format: in vivo, female Balb/c mice. Here is the method:
The induction of pneumonia in mice was carried out according to the standard procedure [Eur Respir J. 2013 V. 41(5). […] Female Balb/c mice were intranasally administered with 8 μg/kg of polyinosine-polycytidylic acid (poly I:C) in 30 μl of PBS on days 1, 2, 3 and 4. Then at days 15, 16, 17 and 18, in the same volume 2 μg/kg of poly I:C were administered to the animals. […] All mice were sacrificed on the 19th day of the study. The bronchus from the right lung was pinched by the ligature, the left lung was washed 3 times with 0.8 ml of the sterile PBS. After each administration of PBS into the lung, the gentle massage of the lung was carried out, PBS was drained by gravity. Finally, the final volume of the resulting bronchoalveolar lavage (BAL) was considered and written. A number of neutrophils was evaluated in the BAL (using the Diff-Quik staining). For histological study, the right lung lobe was fixed in 10% neutral formalin solution and embedded in paraffin by the standard procedure. Deparaffinated 5-micron shears were stained with hematoxylin-eosin. Each lesion was evaluated according to a 5-point scale: 1 point—the inflammatory infiltrate occupies 0-20% of the area of the histological preparation under study, 2 point—the inflammatory infiltrate occupies 21-40% of the area of the histological preparation under study, 3 points—the inflammatory infiltrate occupies 41-60% of the area of the histological preparation under study, 4 points—the inflammatory infiltrate occupies 61-80% of the area of the histological preparation under study, 5 points—the inflammatory infiltrate occupies 81-100% of the area of the histological preparation under study. Alveolar destruction index (DI) as the percentage of the damaged alveoli relative to the total number of alveoli was also calculated.

Setting [5] is: 30 mg/kg intragastric, 48 hours after carrageenan, M ± m, n = 10.
[6] abbreviates: 30 mg/kg intragastric daily day 6-19, 5-point scale, M ± m, n = 7.

For `O=C1CCCC(=O)N1CCc1cnc[nH]1` [Compound 1, 1-(2-(1H-imidazol-4-yl)ethyl)piperidine-2,6-dione], the “Macrophages in peritoneal exudate” value in test [1] (30 mg/kg intragastric, 72 hours after thioglycolate) is given as 0.84 ± 0.16 & ×10^9/l. The “Quantity of macrophages in the peritoneal exudate” value in test [1] (intragastric administration) is given as “to the level of intact animals”. Besides, the “Increase of the threshold of pain sensitivity in the hot plate test” value in test [2] worked out at 2 times. Moreover, in test [3] (setting [5]), the “Macrophages in the exudate from the carrageenan pouch” value is listed as 0.6 ± 0.2 & ×10^9/l and the “Neutrophils in the exudate from the carrageenan pouch” value is recorded as 0.6 ± 0.1 & ×10^9/l. For the same molecule, in test [3] (intragastric administration), the “Quantity of neutrophils and macrophages in the pouch cavity” value is on record as “to the level of intact animals”. In addition, in test [4] (setting [6]), the Interstitial pneumonia is 0.76 ± 0.1& points, the Peribronchitis is on record as 0.73 ± 0.32& points and the Perivasculitis is reported as 0.80 ± 0.31& points. Moreover, the “Neutrophils in 1 μl Score (bronchoalveolar lavage)” value in test [4] (30 mg/kg intragastric daily day 6-19, M ± m, n = 7) is recorded as 0.0 ± 0.0& in 1 μl. The “Influx of neutrophils into the bronchoalveolar space” value in test [4] (intragastric administration) is reported as “completely abolished”.
